Source: patent US20250222120A1, “SYNTHESIS OF NOVEL SMALL MOLECULE CARM1 DEGRADERS, COMPOUNDS FORMED THEREBY, AND PHARMACEUTICAL COMPOSITIONS CONTAINING THEM” (Wisconsin Alumni Research Foundation, priority 2024, published 2025)

Legend:
MDA-MB-231 cells [1] = test: Transwell migration assay, MDA-MB-231 cells; assay type: cell-based
Method: Transwell Migration Assay. Cells were harvested and washed in serum-free DMEM. The wells of a 24-well plate were filled with 800 μL of DMEM with 10% FBS. Transwell inserts with […] pore size were then added to the wells with DMEM. Cells were resuspended in serum-free DMEM, then 1×10^5 cells in 200 μL were added to the upper chambers. Drug treatments were added to the lower chambers, then incubated for 20 h at 37° C. The cells on the upper surface were removed with cotton swabs. Migratory cells were fixed in 3.7% formaldehyde at room temperature, followed by 100% methanol at −20° C. Fixed cells were stained with 1% crystal violet in 20% methanol for 30 min. The migration area was quantified from five independent fields of view of the lower surface of the membrane under a microscope.

[2] = tested on: PABP1 and BAF155 di-methylation by CARM1; test: PABP1 and BAF155 di-methylation (me2a) inhibition in MCF7 cells, western blot; assay type: cell-based, human; conditions: 24 h, 0.1 μM 3b versus 10 μM TP-064
From the text: (See Wang et al. “CARM1 Methylates Chromatin Remodeling Factor BAF155 to Enhance Tumor Progression and Metastasis” Cancer Cell 2014, 25 (1), 21-36; Lee and Bedford. “PABP1 Identified as an Arginine Methyltransferase Substrate Using High-Density Protein Arrays” EMBO Rep. 2002, 3 (3), 268-273.) In fact, asymmetric dimethylation (me2a) of these proteins are routinely investigated for CARM1 inhibitors.
(§1) Western Blot Assay. Cells were harvested and washed with Dulbecco's phosphate-buffered saline (PBS), then lysed with 1×RIPA lysis buffer (50 mM Tris pH 7.5, 150 mM NaCl, 1% NP-40, 0.5% sodium deoxycholate, and 0.1% sodium dodecyl sulfate) supplemented with 1 mM phenylmethylsulfonyl fluoride, 10 μg/mL aprotinin, 1 μM leupeptin, and 10 μg/mL pepstatin on ice for 20 min. The supernatant was collected after spinning down at 15000 RPM at 4 degrees Celsius for 10 min. The concentration of whole lysates was quantified using a Bradford assay. 50-75 μg of cell lysates was boiled in 4× Laemmli Loading Dye and boiled at 100 degrees Celsius for 10 min. 25 μg were run in 8% SDS-PAGE gels and transferred to nitrocellulose membranes. Blots were blocked in 5% skim milk in PBST [PBS and 0.1% Tween 20] for 45 min, then incubated with primary antibodies at 4 degrees Celsius overnight. […]

CARM1 [3] = molecular target: T1, CARM1 (Homo sapiens, UniProt Q86X55); test: CARM1 degradation by western blot in MDA-MB-231 cells; assay type: cell-based; conditions: triple-negative MDA-MB-231 cells, 0.5 μM, after 24 or 48 h
T1 sequence (Q86X55 1-608): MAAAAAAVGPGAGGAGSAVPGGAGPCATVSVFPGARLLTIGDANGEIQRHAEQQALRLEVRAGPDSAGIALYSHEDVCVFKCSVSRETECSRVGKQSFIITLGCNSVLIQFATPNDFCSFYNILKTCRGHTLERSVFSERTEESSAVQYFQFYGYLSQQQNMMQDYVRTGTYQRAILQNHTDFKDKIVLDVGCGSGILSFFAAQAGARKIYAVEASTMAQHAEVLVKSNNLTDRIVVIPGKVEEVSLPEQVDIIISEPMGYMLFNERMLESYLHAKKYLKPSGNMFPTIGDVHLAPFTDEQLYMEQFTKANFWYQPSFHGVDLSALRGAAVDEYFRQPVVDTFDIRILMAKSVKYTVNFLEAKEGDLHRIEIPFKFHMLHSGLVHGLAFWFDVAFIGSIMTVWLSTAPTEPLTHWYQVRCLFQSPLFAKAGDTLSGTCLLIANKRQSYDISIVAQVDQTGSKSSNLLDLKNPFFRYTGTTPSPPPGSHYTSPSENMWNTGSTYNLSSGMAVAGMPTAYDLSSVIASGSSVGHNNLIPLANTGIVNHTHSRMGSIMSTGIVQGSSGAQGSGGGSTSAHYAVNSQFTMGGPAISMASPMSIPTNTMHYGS
From the text: (§2) FIGS. 7A-7F. […] Cell lysates were collected and CARM1, methyl-BAF155, total BAF155, methyl-PABP1, and total PABP1 levels were detected by Western blot. […] Cell lysates were collected and CARM1, methyl-BAF155, total BAF155 levels were detected by Western blot. […] Cell proliferation rate normalized to day 0 was plotted. […] Migrated cells were stained with 1% crystal violet and the percentage of migrated cells were plotted. Data mean±s.d. ***. P≤0.001.
as §1

CARM1 [4] = molecular target: T1, CARM1; test: CARM1 degradation by western blot in BT474 cells; assay type: cell-based; conditions: ER+/HER2+ BT474 cells, 0.5 μM, after 24 or 48 h
From the text: as §2, §1

MDA-MB-231 cells [5] = test: Cell proliferation assay, MDA-MB-231 cells; assay type: cell-based; conditions: 0.5 μM, 7 days
Method: Cell Proliferation Assay. Cell proliferation was measured by direct cell count via high contrast brightfield microscopy. MDA-MB-231 cells (3×10^3/well) were seeded in 100 μL of DMEM into the wells of a 96-well plate. Cells were treated with either DMSO, TP-064, or 3b and refreshed every two days. The plate was imaged daily for 7 days using the High-Contrast Brightfield Kit for Label-Free Cell Counting (BioTek) on the BioTek Imager.

BAF155 me2a = BAF155 me2a level in MDA-MB-231 cells, western blot; assay type: cell-based; conditions: 0.5 μM, after 48 h
From the text: as §2, §1

In the case of CNCCN1CCC(c2cc(CN(C)C(=O)c3cccc(Oc4ccc(OCC(=O)N5CCC(CN6CCC(CN7CCN(CC(=O)N[C@H](C(=O)N8C[C@H](O)C[C@H]8C(=O)N[C@@H](C)c8ccc(-c9scnc9C)cc8)C(C)(C)C)CC7)CC6)CC5)cc4)c3)ccn2)CC1 [Compound 3b, (2S,4R)-1-((S)-3,3-dimethyl-2-(2-(4-((1-((1-(2-(4-(3-(methyl((2-(1-(2-(methylamino)ethyl)piperidin-4-yl)pyridin-4-yl)methyl)carbamoyl)phenoxy)phenoxy)acetyl)piperidin-4-yl)methyl)piperidin-4-yl)methyl)piperazin-1-yl)acetamido)butanoyl)-4-hydroxy-N—((S)-1-(4-(4-methylthiazol-5-yl)phenyl)ethyl)pyrrolidine-2-carboxamide], the “Dose lower than the corresponding inhibitor for the same anti-migratory effects” value (MDA-MB-231 cells [1]; 0.5 μM 3b versus 10 μM TP-064) is reported as 20 fold, the Cell migration (MDA-MB-231 cells [1]; 0.5 μM, transwell, 20 h) is reported as “inhibited cell migration at a similar level” and the “Levels of PABP1 and BAF155 me2a inhibition” value [2] is reported as “at least as equivalent to that of 10 μM of TP-064”. For the same compound, the CARM1 degradation (CARM1 [3]) was “effectively degraded”, the CARM1 degradation (CARM1 [4]) was “effectively degraded” and the Cell proliferation (MDA-MB-231 cells [5]) was “not to inhibit cell proliferation”. For the same compound, the “BAF155 me2a level” value (BAF155 me2a) was “decrease of BAF155 me2a level was observed”.
